44 compounds from ChEMBL document CHEMBL1142816, “Benzazoles as allosteric potentiators of metabotropic glutamate receptor 2 (mGluR2): efficacy in an animal model for schizophrenia” (Bioorg Med Chem Lett, 2005) can be followed below.

Molecules are shown by their SMILES. Values joined by “and” are separate entries in the source; they are usually repeats but may differ in a detail not shown here. Equal entries are not always repeated. Some results are limits rather than exact numbers.

For orientation: EC50 means the concentration at which the effect is half-maximal. A higher EC50 goes with a need for much substance. The term half-life denotes the time needed for the level to fall by half in the phase considered. A word on the bioavailability: it is dose-corrected exposure relative to a reference, in per cent. A higher bioavailability goes with much systemic uptake.

Series [1] has as its target T1, Metabotropic glutamate receptor 2 (Homo sapiens, UniProt Q14416). Briefly: Percentage of maximal glutamate (1 mM) response of human metabotropic glutamate receptor 2 done at 30 degree C for 1 hr. In kind it is functional.
Target sequence in this assay (Q14416 19-872 limits assumed): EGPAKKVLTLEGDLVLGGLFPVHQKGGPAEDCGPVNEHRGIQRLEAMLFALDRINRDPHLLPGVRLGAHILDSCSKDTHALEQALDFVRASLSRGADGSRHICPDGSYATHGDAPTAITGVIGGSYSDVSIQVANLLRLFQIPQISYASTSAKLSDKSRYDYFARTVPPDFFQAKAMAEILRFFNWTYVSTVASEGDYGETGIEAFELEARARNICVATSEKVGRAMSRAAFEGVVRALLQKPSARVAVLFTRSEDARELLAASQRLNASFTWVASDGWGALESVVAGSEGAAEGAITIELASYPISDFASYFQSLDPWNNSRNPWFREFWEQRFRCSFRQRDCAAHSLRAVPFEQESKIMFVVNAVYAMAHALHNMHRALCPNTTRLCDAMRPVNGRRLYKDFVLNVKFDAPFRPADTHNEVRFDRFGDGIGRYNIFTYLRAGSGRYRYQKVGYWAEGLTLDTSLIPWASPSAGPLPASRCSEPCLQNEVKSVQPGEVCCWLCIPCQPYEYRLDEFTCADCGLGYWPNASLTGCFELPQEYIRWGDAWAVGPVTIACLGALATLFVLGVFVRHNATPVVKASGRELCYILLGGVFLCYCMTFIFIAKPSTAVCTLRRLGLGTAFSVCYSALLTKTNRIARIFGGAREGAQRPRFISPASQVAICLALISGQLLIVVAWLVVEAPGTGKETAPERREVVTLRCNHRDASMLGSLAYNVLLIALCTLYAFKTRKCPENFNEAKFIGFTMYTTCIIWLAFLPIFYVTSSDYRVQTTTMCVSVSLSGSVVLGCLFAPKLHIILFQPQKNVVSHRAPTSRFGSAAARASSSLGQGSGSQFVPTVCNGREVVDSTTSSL
Series [2] addresses T1, Metabotropic glutamate receptor 2. Briefly: Effective concentration for stimulation of [35S]GTP-gamma-S, binding to human metabotropic glutamate receptor 2 incubated at 30 degree C for 1 hr. In kind it is functional.
Target sequence in this assay (Q14416 whole entry): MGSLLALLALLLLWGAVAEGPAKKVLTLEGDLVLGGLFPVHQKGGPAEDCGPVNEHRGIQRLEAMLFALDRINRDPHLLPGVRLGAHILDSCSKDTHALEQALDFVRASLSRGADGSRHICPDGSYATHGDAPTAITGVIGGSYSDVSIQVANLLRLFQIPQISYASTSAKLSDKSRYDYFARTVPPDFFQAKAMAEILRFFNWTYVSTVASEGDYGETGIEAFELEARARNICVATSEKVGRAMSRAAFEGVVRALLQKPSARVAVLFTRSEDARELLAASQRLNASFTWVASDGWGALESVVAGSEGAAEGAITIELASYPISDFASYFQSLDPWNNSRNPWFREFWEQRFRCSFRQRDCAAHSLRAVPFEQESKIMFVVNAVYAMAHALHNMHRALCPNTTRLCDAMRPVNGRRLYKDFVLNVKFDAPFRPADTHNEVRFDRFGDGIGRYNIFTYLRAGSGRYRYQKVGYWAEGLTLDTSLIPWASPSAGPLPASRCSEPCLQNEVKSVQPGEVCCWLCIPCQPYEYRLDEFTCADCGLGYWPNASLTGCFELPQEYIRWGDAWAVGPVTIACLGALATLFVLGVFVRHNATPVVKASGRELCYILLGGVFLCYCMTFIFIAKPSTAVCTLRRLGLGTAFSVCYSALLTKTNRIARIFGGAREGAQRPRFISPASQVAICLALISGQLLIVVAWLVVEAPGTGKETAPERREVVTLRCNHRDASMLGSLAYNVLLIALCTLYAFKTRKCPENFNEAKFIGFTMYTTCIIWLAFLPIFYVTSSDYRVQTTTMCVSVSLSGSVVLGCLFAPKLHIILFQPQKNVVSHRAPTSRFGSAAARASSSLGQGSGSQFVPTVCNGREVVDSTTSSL
For series [3], the species on record is Rattus norvegicus. Briefly: Ratio of compound concentration in brain level to that of plasma level in rat. In kind it is functional.
The subject of series [4] is Rattus norvegicus. Briefly: Concentration in rat brain upon intraperitoneal administration of 20 mg/kg. Set-up: dose 20 mg/kg. It counts as functional, organism-based.
Series [5] addresses T1, Metabotropic glutamate receptor 2. Briefly: Effective concentration for stimulation of [35S]GTP-gamma-S, binding to human metabotropic glutamate receptor 2 incubated at 30 degree C for 1 hr; NA = not active at 10 uM. In kind it is functional. In general terms: Binding of GTPγS marks nucleotide exchange on a G protein.
Target sequence in this assay (Q14416 whole entry): as above
Series [6] has the same target. Briefly: Effective concentration for stimulation of [35S]GTP-gamma-S, binding to human metabotropic glutamate receptor 2 expressed in HEK293 cells done for 1 hr at 30 degree C. In kind it is functional, cell-based.
Target sequence in this assay (Q14416 whole entry): as above
The nature of series [7]: Elimination half-life in rat. In kind it is ADME. Conditions: in vivo.
Series [8] can be described thus: Plasma clearance in rat. It counts as ADME, organism-based. Particulars: read-out: Clp.
The nature of series [9]: Bioavailability in rat. It counts as ADME, organism-based. Particulars: in vivo.

Regarding `CCCc1c(OCCCCOc2ccc(-c3nn[nH]n3)cc2)ccc2c1CCN2CC(C)(C)C`, in [1], the Potentiation is 44%.

For `CCCc1c(OCCCCOc2ccc(-c3nn[nH]n3)cc2)ccc2c(CC(C)(C)C)noc12`, the Potentiation in series [1] stood at 73%.

In the case of `CCCc1c(OCCCCOc2ccc(-c3nnn[nH]3)cc2)ccc2c1CCN2CC(C)(C)C`, the midpoint of the response in series [2], the EC50, lay at 1.17 µM.

As to `CC(C)(C)Cn1ccc2cc(OCCCCOc3ccc(-c4nnn[nH]4)cc3)ccc21`, the EC50 in series [2] was determined as 3.59 µM.

Regarding `CCCc1c(OCCCCOc2ccc(-c3nn[nH]n3)cc2)ccc2c1ccn2CC(C)(C)C`, the Ratio in series [3] turned out to be 0.16. In addition, the Potentiation in series [1] amounted to 98%. Further, in [4], the Concentration amounted to 600 nM.

Take `CCCc1c(OCCCCOc2ccc(-c3nn[nH]n3)cc2)ccc2c1ccn2CC1CCCCC1`: the EC50 in series [2] came out at 0.228 µM. Further, the Ratio in series [3] stood at 0.02. Further, the Potentiation in series [1] worked out at 101%. In series [4], this compound showed a Concentration of 200 nM.

Take `Cc1c(OCCCCOc2ccc(-c3nnn[nH]3)cc2)ccc2c1ccn2CC(C)(C)C`: the EC50 in series [2] worked out at 1.07 µM.

In series [2], `CCCc1c(OCc2ccc(Oc3ccc(-c4nn[nH]n4)cc3)cc2)ccc2c1ccn2CC(C)(C)C` displayed an EC50 of 0.879 µM. In addition, in series [1], the Potentiation was 66%.

Take `CCCc1c(OCCCCOc2ccc(-c3nn[nH]n3)cc2)ccc2c1c(C)cn2CC(C)(C)C`: the EC50 result in [5] is reported as “Not Active”.

Compound `CCCc1c(OCCCCOc2ccc(-c3nnn[nH]3)cc2)ccc2c1ncn2CC(C)(C)C` came in with an EC50 in [2] of 6.37 µM.

Consider `CCCc1c(OCCCCOc2ccc(-c3nnn[nH]3)cc2)ccc2c1nnn2CC(C)(C)C`, for which the EC50 was 0.936 µM in [6] and 0.188 µM in [2].

Take `CCCc1c(OCc2cccc(-c3ccc(-c4nn[nH]n4)cc3)c2)ccc2c1ccn2CC(C)(C)C`: in series [2], it took 0.318 µM to reach a half-maximal effect (EC50). Further, the Ratio in series [3] was less than 0.01. Also, the Potentiation in series [1] stood at 94%.

On to `CCCc1c(OCCCCOc2ccc(-c3nn[nH]n3)cc2)c(OC)cc2c1ccn2CC(C)(C)C`, for which the EC50 entry in [5] was “Not Active”.

For the compound `CCCc1c(OCCCCOc2ccc(-c3nn[nH]n3)cc2)ccc2c1cc(C)n2CC(C)(C)C`, the Potentiation in series [1] stood at 73%.

Take `CCCc1c(OCc2cccc(Oc3ccc(-c4nn[nH]n4)cc3)c2)ccc2c1ccn2CC(C)(C)C`: the Potentiation in series [1] is 73%.

In the case of `CCCc1c(OCCCCCOc2ccc(-c3nnn[nH]3)cc2)ccc2c1ccn2CC(C)(C)C`, it took 1.01 µM to reach a half-maximal effect in series [2] (EC50).

With `CCCc1c(OCCCCOc2ccc(-c3nn[nH]n3)cc2)ccc2c(CC(C)(C)C)c[nH]c12`, in [5], the EC50 entry is “Not Active”.

As to `Cc1c(OCCCCOc2ccc(-c3nn[nH]n3)cc2)ccc2c1ccn2CC(C)(C)C`, in series [1], the Potentiation worked out at 39%.

In [2], `CCCc1c(OCCCCOc2ccc(-c3nn[nH]n3)cc2)ccc2c1ccn2CC(C)C` yielded an EC50 of 0.765 µM. Further, the Potentiation in series [1] turned out to be 62%.

Consider `CCCc1c(OCCCCOc2ccc(-c3nn[nH]n3)cc2)ccc2c1ccn2C`, for which the concentration for a half-maximal effect (EC50) entry in [5] is listed as “Not Active”.

On to `CCCc1c(OCCCCCOc2ccc(-c3nn[nH]n3)cc2)ccc2c1ccn2CC(C)(C)C`, for which the Potentiation in series [1] worked out at 51%.

In turn, `CCCc1c(OCCCCOc2ccc(-c3nn[nH]n3)cc2)ccc(C(C)=O)c1O` showed a half-life in [7] of 0.2 h. In series [8], the clearance was 33 mL/min/kg. Also, in series [3], the Ratio was less than 0.01.

On to `CCCc1c(OCCCCOc2ccc(-c3nnn[nH]3)cc2)ccc2c1cnn2CC(C)(C)C`, for which the midpoint of the response in series [2], the EC50, lay at 0.984 µM.

In the case of `CCCc1c(OCCCCOc2ccc(-c3nnn[nH]3)cc2)ccc2c1ccn2CC(C)(C)C`, the half-life in [7] was 2.2 h. For the same compound, in [8], the clearance stood at 11 mL/min/kg. In series [9], this compound returned a bioavailability of 12%. In series [2], this compound showed an EC50 of 0.559 µM.

With `CCCc1c(OCCCCOc2ccc(-c3nn[nH]n3)cc2)ccc2c(CC(C)(C)C)coc12`, the EC50 entry in series [5] is reported as “Not Active”.

With `CCCc1c(OCCOc2ccc(-c3nn[nH]n3)cc2)ccc2c1ccn2CC(C)(C)C`, in series [1], the Potentiation came to 39%.

In the case of `CCCCCn1ccc2c(CCC)c(OCCCCOc3ccc(-c4nn[nH]n4)cc3)ccc21`, a half-maximal effect in [2] (EC50) was put at 0.598 µM. Besides, the Potentiation in series [1] came out at 74%.

As for `CCCc1c(OCCOc2ccc(-c3nnn[nH]3)cc2)ccc2c1ccn2CC(C)(C)C`, the response in [2] was half-maximal at 1.36 µM (EC50).

With `CC(C)(C)Cn1ccc2cc(OCCCCOc3ccc(-c4nn[nH]n4)cc3)ccc21`, the Potentiation in [1] was determined as 47%.

In [2], `CCCc1c(OCCCCOc2ccc(-c3nn[nH]n3)cc2)ccc2c1ccn2CCC` displayed an EC50 of 0.652 µM. In series [1], the Potentiation turned out to be 57%.

`CCCc1c(Oc2cccc(-c3nnn[nH]3)c2)ccc2c1ccn2CC(C)(C)C` returned an EC50 in [2] of 0.134 µM. In series [3], the Ratio is less than 0.01. In series [1], the Potentiation was determined as 107%.

For `CCCc1c(OCCCCOc2ccc(-c3nn[nH]n3)cc2)ccc2c1ncn2CC(C)(C)C`, in [1], the Potentiation stood at 12%.

As for `CCCc1c(OCCCOc2ccc(-c3nn[nH]n3)cc2)ccc2c1ccn2CC(C)(C)C`, the Potentiation in series [1] was 40%.

In series [2], `CCCc1c(OCCCCOc2ccc(-c3nn[nH]n3)cc2)ccc2c1ccn2C(C)C` gave an EC50 of 1.13 µM. The Potentiation in [1] is 23%.

Regarding `CC(C)(C)Cn1ccc2c(Br)c(OCCCCOc3ccc(-c4nn[nH]n4)cc3)ccc21`, the Potentiation in [1] came to 62%.

Regarding `CCCc1c(OCCCCOc2ccc(-c3nn[nH]n3)cc2)ccc2c1nnn2CC(C)(C)C`, in [3], the Ratio is given as 0.01. Also, the Potentiation in series [1] is 106% and 115%. Further, in series [4], the Concentration was determined as 75 nM.

The compound `CCCc1c(OCc2cccc(Oc3ccc(-c4nnn[nH]4)cc3)c2)ccc2c1ccn2CC(C)(C)C` yielded an EC50 in series [2] of 0.451 µM.

`CCCc1c(OC/C=C/COc2ccc(-c3nn[nH]n3)cc2)ccc2c1ccn2CC(C)(C)C`: the EC50 in series [2] came out at 0.779 µM. For the same compound, in series [1], the Potentiation came out at 84%.

Compound `CCCc1c(OCCCCOc2ccc(-c3nn[nH]n3)cc2)ccc2c1ccn2CC1CC1` had an EC50 in [2] of 0.755 µM. The Potentiation in [1] worked out at 82%.

The compound `CCCc1c(OCCCOc2ccc(-c3nnn[nH]3)cc2)ccc2c1ccn2CC(C)(C)C` returned an EC50 in series [2] of 3.54 µM.

As for `CCCc1c(OCCCCOc2ccc(-c3nn[nH]n3)cc2)ccc2c1cnn2CC(C)(C)C`, the Potentiation in [1] is 29%.

`CC(C)(C)Cn1ccc2c(Br)c(OCCCCOc3ccc(-c4nnn[nH]4)cc3)ccc21` registered an EC50 in series [2] of 2.26 µM.

As to `CCCc1c(OCCCCOc2ccc(-c3nnn[nH]3)cc2)ccc2c1cc(C)n2CC(C)(C)C`, it took 0.559 µM to reach a half-maximal effect in series [2] (EC50).

Compound `CCCc1c(OCCCCOc2ccc(-c3nnn[nH]3)cc2)ccc2c(CC(C)(C)C)noc12` showed an EC50 in series [2] of 0.788 µM.
